The text below walks through data of US20210393667A1, “TARGET FOR ANTI-CANCER THERAPY” (Phoremost Limited, priority 2018, published 2021).

Where two headings read alike, the source gives them in different places.

Series [1] concerns CA18-NanoLuc frameshift reporter in HEK293FT cells. Kind of series: Frameshift reporter (FSR) CA(18)-NanoLuc assay, small molecule treatment. The conditions noted are these: for increase in FSR signal: 72 hours, vs untreated FSR luminescence; for FSR activity (in words): dose range. In kind it is cell-based. The source says:
In order to read out mismatch repair (MMR) and hypermutability in mammalian cells, a Frameshift reporter (FSR) assay was used. The assay specifically focuses on frameshifts because, of all mismatch mutations, these are the ones that most abundantly generate neoantigens (see, for example, Turajlic et al. Lancet Oncol. 2017 (18; 1009-21). The assay based on the activity of the NanoLuciferase (NanoLuc®, Promega) reporter enzyme was developed (the “CA(n)-NanoLuc assay”). Copies of the CA dinucleotide repeat (referred to as “CA(n)”) were cloned upstream of the NanoLuc coding sequence. Typically 18 copies of the CA dinucleotide repeat (CA(18)) were used. Alternatively, the assay used 20 copies (CA(20)). This CA(n) tract renders the NanoLuc coding sequence out of frame, and therefore there is no reporter enzyme expression and no activity. The CA(n) tract is, however, a sequence which is subject to frequent DNA replication errors, and is therefore reliant on the MMR pathway to repair any post-replicative DNA mismatches. In a MMR-competent cell, any errors are efficiently repaired, the NanoLuc coding sequence remains out of frame and thus reporter activity is low. If, however, MMR is inhibited either by a small molecule or by genetic loss of any of the MMR machinery, post-replicative errors may remain unrepaired, frameshift mutations may occur, and therefore some cells in a population will now express a functional NanoLuc protein.
MMR inhibition can therefore be reported as an increase in NanoLuc® activity when a plasmid containing a CA repeat, such as the CA(18) NanoLuc construct, is transfected into cells. Since NanoLuc® is a highly processive enzyme with a large and linear dynamic range, it was predicted that only a small number of MMR errors would be required to generate a positive signal, making for a sensitive assay with a large signal to noise ratio.
In addition, it has been shown that inhibition of RNR causes altered pools of dNTP resulting in increased mutation rates. Relatively modest dNTP pool deviations induce exceptionally strong mutator phenotypes which cause saturation of the DNA mismatch repair system and lead to detection in the FSR assay system.
HEK293FT cells seeded at 600,000 cells per well in a 6 well plate and incubated overnight. Media was replaced and incubated a further 2 hours before transient transfection of pcDNA3.1 Hygro CA18Nluc (0.5 μg). After 4 hours media was replaced and incubated overnight. Media was aspirated, cells washed with PBS and trypsinised. Cells were pelleted by centrifugation (1000×g, 5 mins), washed in PBS, centrifuged again and resuspended in fresh media to […].
(§1) A 96 well plate was seeded with 100 μl of transfected cells and incubated overnight. A 2× solution of clofarabine was made to 100 μM in DMEM and 9× two-fold dilutions were made in growth media. A parallel dilution series was made with equal concentrations of DMSO as a control. 100 μL of clofarabine or DMSO solution was added to wells of 96 well plates (6 replicates per concentration). PBS was added to outer wells of 96 well plates and incubated for 48 hours. To 3 wells per concentration a 1:1 ratio of CellTiter Glo (Promega) was added. To remaining wells, an equal volume of NanoGlo (Promega) reagent was added. 100 μL was aliquoted from each well to a 96 well, white walled, white bottomed plate and luminescence read. Percentage viability was calculated for all conditions in comparison to an untreated control and nanoluciferase reading were normalised to viability.
For triapine treatment, cells were initially seeded into 6 well plates and transfected with the pcDNA3.1 Hygro CA18Nluc construct, as in the detailed method for clofarabine treatment. After transfection, cells were trypsinised and seeded into white-walled 384 well plates at a density of 2000 cells per well in a final volume of 30 uL. After 24 hours, cells were treated with compounds or a DMSO solvent control in a final volume of 3.3 uL. […]

The subject of series [2] is HEK293FT cells. Kind of series: CellTitre Glo viability assay. The format is cell-based. Conditions: HEK293FT cells, 3.33 uM, 72 hours. The method, then: as §1
(§2) For triapine treatment, cells were initially seeded into 6 well plates and transfected with the pcDNA3.1 Hygro CA18Nluc construct, as in the detailed method for clofarabine treatment. After transfection, cells were trypsinised and seeded into white-walled 384 well plates at a density of 2000 cells per well in a final volume of 30 uL. After 24 hours, cells were treated with compounds or a DMSO solvent control in a final volume of 3.3 uL. Compound stock was diluted to achieve a final concentration of 10 uM, and compounds were serially diluted in DMSO by three-fold to generate the dose-response curve. Compound was subsequently diluted in media, and then added to cells in 3.3 uL, ensuring a final concentration of DMSO no greater than 0.5%. PBS was added to outer wells of the 384 well plates and incubated for 72 hours. To 3 wells per concentration, 5 uL of CellTiter Glo (Promega) was added. To remaining wells, 30 uL of NanoGlo (Promega) reagent was added and incubated at room temperature for 30 minutes. Luminescence was read. Percentage viability was calculated for all conditions in comparison to an untreated control and nanoluciferase reading were normalised to viability.

Series [3] can be described thus: CellTitre Glo viability assay. Conditions: human. The format is cell-based. The method, then:
as §1, §2

Series [4] deals with HEK293FT cells. Briefly: GI50, standard dosimetric assay testing for cell growth. The format is cell-based.
For series [5], the system named is CT26 cells. Kind of series: Whole exome sequencing of CT26 cells after 100 days of clofarabine. In kind it is cell-based, mouse. Conditions: 100 nM, relative to matched vehicle only control. The method, then:
CT26 cells, cultured in RPM11640 were dosed with 100 nM clofarabine or with DMSO only. Cells were passaged and re-dosed every 72 hours. Cells were harvested at 100 days, and single-cell colonies (SSCs) derived for each sample. After expansion over 8-10 days, genomic DNA was extracted from SSC pellets and whole exome sequencing (WES) performed following methods such as those described, for example, in WO2017/182783, see page 33, line 21 onwards and page 34, lines 1 to 5.
Somatic single nucleotide variants (SNVs), multiple-nucleotide polymorphisms (MNPs), and insertion-deletion (InDel) mutations were identified using the GATK4 Toolkit and GATK's Mutect2 (version 4.1.4.0) to analyse the WES data. Prior to mapping the read sequences to the reference genome (mm10), read data quality and adapter trimming and QC was performed using TrimGalore and a Q-score cut-off of 30. Reads were aligned to mm10 using BWA mem (version 0.7.17-r1188). Duplicate reads were marked using MarkDuplicates (Picard, GATK4 copy). Variant discovery using Mutect2 was performed using a custom generated interval list and Panel of Normals (PON) resource. The interval list was derived for a BED file of canonical transcript exon positional information for mm10, which was generated using the UCSC TableBrowser. The PON was derived for matched CT26 WES data using Mutect2, GenomicsDBImport, and CreateSomaticPanelOfNormals. Variant filtering was performed using FilterMutectCalls (GATK4). Variants detailed in the VCF files generated using FilterMutectCalls were further filtered using a shell script in order to keep only variants meeting the quality control thresholds applied by FilterMutectCalls and exclude variants identified for reads mapping to unlocalized and unplaced contigs. The functional effects of the identified variants (on genes, transcripts, protein sequences, and regulatory regions) were predicted using the Ensembl Variant Effect Predictor (VEP).

In series [6] the test system is CT26 cells. Briefly: T cell killing assay with clofarabine-treated CT26 cells. In kind it is cell-based, mouse. Conditions: CT26 cells treated with 100 nM for 100 days; stimulated and unstimulated, C57BL/6- and Balb/c-derived CD8 T cells, 10:1, 72 h.
Method: T-cell extraction: Spleen from C56BL/6 and Balb/c mice was homogenised aseptically using a cell strainer and syringe plunger. RBC was lysed using lysis buffer and remaining cells washed and counted. Dynabeads untouched mouse CD8 cell kit (Thermofisher: 11417D) used to isolate CD8 cells using negative selection. Half these cells were cultured as unstimulated for assay controls but the majority was cultured with Dynabeads Mouse T-activator CD3/CD28 beads for 24 h prior to assay. T-cell assay: CT26 tumour cell lines (parental as control) was plated at 3,000 cells per well into a 96 well plate; effector cells at a ratio of 10:1 was added along with appropriate stains and imaged on the EVOS microscope over a period of 72 h.
The conditions of series [7]: recommended dose for adult acute leukemia, 40 mg/m2/day×5 days; cited from earlier work.

In the case of `Nc1nc(Cl)nc2c1ncn2[C@H]1C[C@H](O)[C@@H](CO)O1` [cladribine, Cladribine], in series [1] (3.33 uM), the “increase in FSR signal” value is listed as 226%. For the same compound, the reduction in viability entry in series [2] is “no reduction in viability”.

Take `Nc1nc(Cl)nc2c1ncn2[C@@H]1O[C@H](CO)[C@@H](O)[C@@H]1F` [clofarabine, (2R,3R,4S,5R)-5-(6-amino-2-chloropurin-9-yl)-4-fluoro-2-(hydroxymethyl)oxolan-3-ol]: the “increase in FSR signal” value in series [1] (50 nM) is 40%. Also, in series [1], the “FSR activity (in words)” value is on record as “dose-dependent increase in FSR activity”. Moreover, the viability at 72 h, 0.05 µM in series [3] came out at 92%. This compound came in with a GI50 in series [4] of 430 nM. In addition, in series [5], the “overall burden of mutations (largely SNV)” value was “does not increase substantially”, the “proportion of frame-shift causing InDel mutations” value is given as “elevated” and the “total count of frame-shift causing InDel mutations” value was “elevated”. Besides, in series [6], the T cell killing result was “significantly increase T cell killing”. The plasma levels entry in series [7] is recorded as “around 1 μM”.

Turning to `Nc1ccn([C@@H]2O[C@H](CO)[C@@H](O)C2(F)F)c(=O)n1` [gemcitabine], the “increase in FSR signal” value in series [1] (370 nM) is 300%. Also, the “FSR activity (in words)” value in series [1] was “causes an increase in FSR activity”. In series [3], this compound yielded a cytotoxicity at 72 h, 370 nM of 50%. The compound also returned a concentration for 50% growth inhibition (GI50) in series [4] of 440 nM.

Consider `NC(=S)N/N=C/c1ncccc1N` [triapine], for which the “increase in FSR signal” value in series [1] (370 nM) is given as 400%. In series [3] (HEK293FT cells, 370 nM, 72 hours, vs DMSO control, read-out: reduction in viability), the cytotoxicity at 72 h, 370 nM was 23%. In series [4], this compound returned a concentration for 50% growth inhibition (GI50) of 600 nM.
